Laboratory results reported in ChEMBL document CHEMBL5291721, “A preclinical secondary pharmacology resource illuminates target-adverse drug reaction associations of marketed drugs” (Nat Commun, 2023).

Columns and labels:
[1] = target: Beta-1 adrenergic receptor (Homo sapiens, UniProt P08588); format: functional
[2] = target: Glutamate receptor ionotropic, NMDA 1 (Rattus norvegicus, UniProt P35439)
[3] = target: T1, Muscarinic acetylcholine receptor M1 (Homo sapiens, UniProt P11229); format: functional
T1 sequence (P11229 whole entry): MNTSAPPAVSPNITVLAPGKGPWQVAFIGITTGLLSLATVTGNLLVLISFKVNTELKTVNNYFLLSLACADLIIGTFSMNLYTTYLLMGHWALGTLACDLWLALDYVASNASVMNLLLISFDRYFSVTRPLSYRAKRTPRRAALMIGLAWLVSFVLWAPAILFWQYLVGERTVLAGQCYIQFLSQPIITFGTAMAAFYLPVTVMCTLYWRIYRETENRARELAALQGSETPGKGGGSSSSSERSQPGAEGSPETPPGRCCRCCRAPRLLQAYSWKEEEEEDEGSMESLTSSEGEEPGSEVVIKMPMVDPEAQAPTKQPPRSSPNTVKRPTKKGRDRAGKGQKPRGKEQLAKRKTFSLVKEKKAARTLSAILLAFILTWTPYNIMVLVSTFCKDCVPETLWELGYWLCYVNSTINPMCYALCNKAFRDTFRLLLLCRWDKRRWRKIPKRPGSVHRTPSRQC

[4] = target: T2, Prostaglandin G/H synthase 1 (Rattus norvegicus, UniProt Q63921); format: functional
T2 sequence (Q63921 whole entry): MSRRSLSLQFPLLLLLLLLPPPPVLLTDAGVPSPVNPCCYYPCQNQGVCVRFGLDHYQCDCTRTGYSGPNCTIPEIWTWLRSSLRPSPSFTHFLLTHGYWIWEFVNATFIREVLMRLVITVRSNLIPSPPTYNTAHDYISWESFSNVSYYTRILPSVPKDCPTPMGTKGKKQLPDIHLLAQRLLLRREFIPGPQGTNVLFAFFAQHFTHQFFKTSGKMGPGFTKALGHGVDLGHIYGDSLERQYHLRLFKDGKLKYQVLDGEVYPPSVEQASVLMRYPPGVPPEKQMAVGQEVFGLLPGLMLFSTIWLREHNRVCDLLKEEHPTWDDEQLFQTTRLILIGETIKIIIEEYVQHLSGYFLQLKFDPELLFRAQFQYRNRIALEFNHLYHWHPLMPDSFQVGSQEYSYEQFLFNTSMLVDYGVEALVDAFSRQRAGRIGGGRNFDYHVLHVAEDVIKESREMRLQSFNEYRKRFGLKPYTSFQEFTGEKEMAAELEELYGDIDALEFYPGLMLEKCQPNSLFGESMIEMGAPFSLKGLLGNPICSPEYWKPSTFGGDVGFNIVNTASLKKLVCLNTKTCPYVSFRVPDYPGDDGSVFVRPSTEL

Cannabinoid receptor 1 = Cannabinoid receptor 1 (Homo sapiens, UniProt P21554); format: functional, cell-based
[5] = target: Neuronal acetylcholine receptor subunit alpha-4 (Homo sapiens, UniProt P43681)
[6] = target: Delta-type opioid receptor (Homo sapiens, UniProt P41143)
Endothelin-1 receptor = target: T3, Endothelin-1 receptor (Homo sapiens, UniProt P25101)
T3 sequence (P25101 whole entry): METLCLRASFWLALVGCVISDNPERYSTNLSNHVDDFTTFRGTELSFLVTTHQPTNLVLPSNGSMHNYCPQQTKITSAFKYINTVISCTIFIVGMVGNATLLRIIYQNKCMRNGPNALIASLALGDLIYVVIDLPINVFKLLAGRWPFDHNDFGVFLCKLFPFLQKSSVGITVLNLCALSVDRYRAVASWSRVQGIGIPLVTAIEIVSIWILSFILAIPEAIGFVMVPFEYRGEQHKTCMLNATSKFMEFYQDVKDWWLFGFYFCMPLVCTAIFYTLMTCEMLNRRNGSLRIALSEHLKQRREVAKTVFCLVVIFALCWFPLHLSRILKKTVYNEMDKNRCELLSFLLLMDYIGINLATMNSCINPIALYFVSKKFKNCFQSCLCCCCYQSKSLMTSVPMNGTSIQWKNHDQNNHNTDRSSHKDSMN

[7] = target: 5-hydroxytryptamine receptor 2B (Homo sapiens, UniProt P41595); format: functional, cell-based
Progesterone receptor = target: T4, Progesterone receptor (Homo sapiens, UniProt P06401)
T4 sequence (P06401 whole entry): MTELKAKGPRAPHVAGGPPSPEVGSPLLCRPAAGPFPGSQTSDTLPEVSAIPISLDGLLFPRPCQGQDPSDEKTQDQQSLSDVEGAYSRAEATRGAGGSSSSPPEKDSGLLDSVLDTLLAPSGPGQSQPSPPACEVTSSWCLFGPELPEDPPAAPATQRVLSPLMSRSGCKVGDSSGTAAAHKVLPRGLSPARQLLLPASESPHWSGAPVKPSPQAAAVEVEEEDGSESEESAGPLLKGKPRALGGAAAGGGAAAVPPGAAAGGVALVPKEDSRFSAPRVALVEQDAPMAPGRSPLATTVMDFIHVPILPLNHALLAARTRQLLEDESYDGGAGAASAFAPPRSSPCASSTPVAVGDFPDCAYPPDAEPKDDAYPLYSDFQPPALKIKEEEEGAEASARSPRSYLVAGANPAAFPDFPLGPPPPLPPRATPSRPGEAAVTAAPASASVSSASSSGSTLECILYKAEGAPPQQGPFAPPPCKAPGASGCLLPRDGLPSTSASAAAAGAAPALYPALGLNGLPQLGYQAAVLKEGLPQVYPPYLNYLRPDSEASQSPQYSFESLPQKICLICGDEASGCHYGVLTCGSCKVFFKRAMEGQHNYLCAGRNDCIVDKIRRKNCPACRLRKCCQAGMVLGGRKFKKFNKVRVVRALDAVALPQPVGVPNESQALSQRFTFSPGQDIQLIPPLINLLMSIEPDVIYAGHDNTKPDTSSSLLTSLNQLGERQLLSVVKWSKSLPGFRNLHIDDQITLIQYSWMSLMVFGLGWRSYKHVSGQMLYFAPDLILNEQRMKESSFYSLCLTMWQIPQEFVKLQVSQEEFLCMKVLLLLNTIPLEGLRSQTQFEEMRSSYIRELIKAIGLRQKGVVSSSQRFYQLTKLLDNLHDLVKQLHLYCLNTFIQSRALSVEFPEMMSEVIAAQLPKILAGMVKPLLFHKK
Further: assay procedure not described here.

Beta-1 adrenergic receptor, sequence (P08588 whole entry): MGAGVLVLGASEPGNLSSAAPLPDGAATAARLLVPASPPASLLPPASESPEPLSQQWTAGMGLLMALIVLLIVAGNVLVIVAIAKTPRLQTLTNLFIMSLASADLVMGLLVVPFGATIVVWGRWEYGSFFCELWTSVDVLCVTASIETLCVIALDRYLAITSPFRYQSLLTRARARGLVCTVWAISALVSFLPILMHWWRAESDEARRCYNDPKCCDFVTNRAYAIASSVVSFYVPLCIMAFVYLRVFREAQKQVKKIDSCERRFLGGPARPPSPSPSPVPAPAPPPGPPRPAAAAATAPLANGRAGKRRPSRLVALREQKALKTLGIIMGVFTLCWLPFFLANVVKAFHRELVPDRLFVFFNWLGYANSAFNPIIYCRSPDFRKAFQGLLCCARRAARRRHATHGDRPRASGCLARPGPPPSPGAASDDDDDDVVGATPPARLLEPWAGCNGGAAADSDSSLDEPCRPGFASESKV
Neuronal acetylcholine receptor subunit alpha-4, sequence (P43681 whole entry): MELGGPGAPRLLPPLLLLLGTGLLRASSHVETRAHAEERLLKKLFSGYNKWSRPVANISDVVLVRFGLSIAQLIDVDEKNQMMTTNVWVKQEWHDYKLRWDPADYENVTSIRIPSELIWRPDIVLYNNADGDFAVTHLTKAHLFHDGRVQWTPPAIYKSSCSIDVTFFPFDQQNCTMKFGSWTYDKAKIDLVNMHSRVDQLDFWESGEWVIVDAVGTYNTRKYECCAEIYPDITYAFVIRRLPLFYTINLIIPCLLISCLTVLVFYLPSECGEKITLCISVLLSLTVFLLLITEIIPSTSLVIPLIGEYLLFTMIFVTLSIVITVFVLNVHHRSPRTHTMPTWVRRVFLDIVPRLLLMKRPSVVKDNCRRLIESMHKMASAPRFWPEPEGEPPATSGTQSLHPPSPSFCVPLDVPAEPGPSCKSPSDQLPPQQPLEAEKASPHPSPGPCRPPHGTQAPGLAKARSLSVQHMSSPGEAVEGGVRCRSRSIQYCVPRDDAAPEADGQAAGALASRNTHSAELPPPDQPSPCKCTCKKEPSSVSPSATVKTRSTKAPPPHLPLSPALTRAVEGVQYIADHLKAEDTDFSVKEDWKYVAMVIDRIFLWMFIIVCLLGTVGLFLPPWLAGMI
5-hydroxytryptamine receptor 2B, sequence (P41595 whole entry): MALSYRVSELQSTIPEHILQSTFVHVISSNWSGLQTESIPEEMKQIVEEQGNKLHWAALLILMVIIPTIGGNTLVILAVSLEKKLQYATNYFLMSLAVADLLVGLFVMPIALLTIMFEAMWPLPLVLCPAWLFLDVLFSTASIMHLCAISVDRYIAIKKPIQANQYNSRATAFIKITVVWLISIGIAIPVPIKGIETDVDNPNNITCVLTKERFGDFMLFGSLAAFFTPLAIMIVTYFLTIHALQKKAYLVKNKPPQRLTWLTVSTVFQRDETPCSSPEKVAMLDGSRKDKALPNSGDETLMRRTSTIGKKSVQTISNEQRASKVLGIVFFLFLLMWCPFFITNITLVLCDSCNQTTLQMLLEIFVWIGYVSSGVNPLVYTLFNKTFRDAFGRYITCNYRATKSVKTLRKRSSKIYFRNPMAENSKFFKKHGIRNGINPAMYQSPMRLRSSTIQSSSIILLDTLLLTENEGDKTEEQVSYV
Delta-type opioid receptor, sequence (P41143 whole entry): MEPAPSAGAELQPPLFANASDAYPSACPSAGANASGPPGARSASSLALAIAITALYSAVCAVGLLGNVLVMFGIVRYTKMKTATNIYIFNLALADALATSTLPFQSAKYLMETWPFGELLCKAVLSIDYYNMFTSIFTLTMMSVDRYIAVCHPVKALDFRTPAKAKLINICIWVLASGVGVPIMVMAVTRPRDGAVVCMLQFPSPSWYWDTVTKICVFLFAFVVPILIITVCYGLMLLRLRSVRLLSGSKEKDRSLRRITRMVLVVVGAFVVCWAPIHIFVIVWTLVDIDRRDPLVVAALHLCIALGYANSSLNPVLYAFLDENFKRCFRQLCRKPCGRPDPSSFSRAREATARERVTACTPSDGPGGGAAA
Cannabinoid receptor 1, sequence (P21554 whole entry): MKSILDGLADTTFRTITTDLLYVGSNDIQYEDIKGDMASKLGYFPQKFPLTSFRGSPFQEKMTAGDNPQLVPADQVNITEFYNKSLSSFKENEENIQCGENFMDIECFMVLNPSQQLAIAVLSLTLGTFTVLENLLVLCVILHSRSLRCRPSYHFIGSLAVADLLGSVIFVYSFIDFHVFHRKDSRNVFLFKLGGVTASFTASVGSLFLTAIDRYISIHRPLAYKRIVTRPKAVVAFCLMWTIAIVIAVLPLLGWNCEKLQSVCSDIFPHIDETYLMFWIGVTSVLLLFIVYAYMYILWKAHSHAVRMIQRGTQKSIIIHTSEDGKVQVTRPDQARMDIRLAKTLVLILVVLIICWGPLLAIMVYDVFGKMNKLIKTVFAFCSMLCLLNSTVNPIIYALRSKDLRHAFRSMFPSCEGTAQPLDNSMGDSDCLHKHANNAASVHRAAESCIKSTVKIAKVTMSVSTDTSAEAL

Row | SMILES | AC50 [1] | AC50 [2] | AC50 [3] | AC50 [4] | AC50 (Cannabinoid receptor 1) | AC50 [5] | AC50 [6] | AC50 (Endothelin-1 receptor) | AC50 [7] | AC50 (Progesterone receptor)
1 | CO/N=C(\C(=O)N[C@@H]1C(=O)N2C(C(=O)O)=C(COC(N)=O)CS[C@H]12)c1ccco1 [CEFUROXIME] | > 30 µM | > 30 µM | > 30 µM | > 30 µM | > 30 µM | > 30 µM | > 30 µM | > 30 µM | > 30 µM | –
2 | C#Cc1cccc(Nc2ncnc3cc(OCCOC)c(OCCOC)cc23)c1 [ERLOTINIB] | > 30 µM | – | > 30 µM | > 30 µM | > 10 µM | > 30 µM | > 30 µM | > 30 µM | > 30 µM | > 30 µM
3 | CCC(=O)O[C@@H](O[P@](=O)(CCCCc1ccccc1)CC(=O)N1C[C@H](C2CCCCC2)C[C@H]1C(=O)O)C(C)C [FOSINOPRIL] | – | > 30 µM | > 30 µM | – | > 30 µM | – | > 30 µM | – | > 30 µM | > 30 µM
4 | C[C@H]1Oc2cc(cnc2N)-c2c(nn(C)c2C#N)CN(C)C(=O)c2ccc(F)cc21 [LORLATINIB] | > 30 µM | – | > 30 µM | > 30 µM | > 30 µM | > 30 µM | > 30 µM | > 30 µM | 14 µM | –
5 | CC(=O)Oc1ccccc1C(=O)Nc1ncc([N+](=O)[O-])s1 [NITAZOXANIDE] | 8.8 µM | > 30 µM | > 30 µM | 0.0031 µM | > 30 µM | 8.8 µM | 5 µM | 12 µM | 17 µM | > 30 µM
6 | CN(C)c1cc(CNCC(C)(C)C)c(O)c2c1C[C@H]1C[C@H]3[C@H](N(C)C)C(O)=C(C(N)=O)C(=O)[C@@]3(O)C(O)=C1C2=O [OMADACYCLINE] | > 30 µM | > 30 µM | 29 µM | 0.645 µM | > 30 µM | > 30 µM | 27 µM | > 30 µM | > 30 µM | > 30 µM
7 | CNC[C@H](O)c1cccc(O)c1 [PHENYLEPHRINE] | – | > 10 µM | > 10 µM | > 30 µM | > 30 µM | > 10 µM | > 10 µM | > 30 µM | > 30 µM | > 30 µM
8 | CC(C)C[C@H](CN)CC(=O)O [PREGABALIN] | > 30 µM | > 30 µM | > 30 µM | > 30 µM | > 30 µM | > 30 µM | > 30 µM | > 30 µM | > 30 µM | –
9 | CCOc1cc(CC(=O)N[C@@H](CC(C)C)c2ccccc2N2CCCCC2)ccc1C(=O)O [REPAGLINIDE] | > 30 µM | – | > 30 µM | > 30 µM | > 30 µM | > 30 µM | > 30 µM | > 30 µM | > 30 µM | –
10 | O=C(Nc1c(Cl)cncc1Cl)c1ccc(OC(F)F)c(OCC2CC2)c1 [ROFLUMILAST] | > 30 µM | > 30 µM | > 30 µM | > 30 µM | > 30 µM | > 30 µM | – | > 30 µM | > 30 µM | –
11 | CC(C)N(CCCCOCC(=O)NS(C)(=O)=O)c1cnc(-c2ccccc2)c(-c2ccccc2)n1 [SELEXIPAG] | > 30 µM | > 30 µM | > 30 µM | > 30 µM | 28 µM | > 30 µM | 25 µM | > 30 µM | 12 µM | –
12 | CN1CCN(CCCN2c3ccccc3Sc3ccc(S(=O)(=O)N(C)C)cc32)CC1 [THIOPROPERAZINE] | – | > 10 µM | 12 µM | – | > 30 µM | – | 29 µM | – | > 30 µM | > 30 µM
13 | CC1(C)O[C@@H]2[C@@H](CO[C@@]3(COS(N)(=O)=O)OC(C)(C)O[C@@H]23)O1 [TOPIRAMATE] | > 10 µM | > 10 µM | > 10 µM | > 30 µM | > 30 µM | > 10 µM | > 10 µM | > 30 µM | > 10 µM | > 30 µM
14 | Cc1cc(CC(=O)O)n(C)c1C(=O)c1ccc(Cl)cc1 [ZOMEPIRAC] | > 30 µM | > 30 µM | > 30 µM | 16 µM | > 10 µM | > 30 µM | > 30 µM | > 30 µM | > 30 µM | –
